The values that follow come from patent publication US9550774B2, “Dihydropyrido pyrimidine compounds as autotaxin inhibitors” (Eli Lilly and Company, priority 2013, dated 2017).

One assay addresses endogenous autotaxin (Homo sapiens (Human), UniProt Q13822). Briefly: Autotaxin Mediated Inhibition of LPA in the Presence of Human Plasma. It is filed as biochemical. Conditions: 90% pooled human plasma, 3 hours at 37° C., total LPA by mass spec. The source says:
The following assay is intended to measure autoaxin mediated inhibition of LPA. This assay is a tool that can be used to identify autotaxin-mediated LPA inhibitor compounds when it is used to test compounds that have been identified as autotaxin inhibitors. LPA biosynthesis through autotaxin is believed to the source of LPA for LPA1 mediated neuropathic pain. Makoto Inoue, et. al, “Autotaxin, a synthetic enzyme of lysophosphatidic acid (LPA), mediates the induction of nerve-injured neuropathic pain”, Molecular Pain, 2008, 4:6. Inhibition of the autotaxin mediated LPA biosynthesis is supported by the results of this assay.
Units of plasma from healthy human female donors collected in sodium heparin (Lampire Biologicals) are pooled, aliquoted and stored at −80° C. […] A 400 μl aliquot of extraction buffer (50% methanol, 49.9% acetonitrile, 0.1% acetic acid) containing LPA internal standards (50 ng/ml D5 deuterium LPA 16:0 and 50 ng/ml D5 deuterium LPA 18:0) is added to each well and the total LPA in each sample is determined by mass spec analysis. Percent inhibition of LPA is calculated according to the following formula: 100−(3 hour plasma+test compound−0 hour plasma no test compound control)/(3 hour plasma no test compound control−0 hour plasma no test compound control)×100
[formula] IC50 values are calculated using 4 parameter curve fitting. […]

Assay [1] concerns the target recombinant human autotaxin (Homo sapiens (Human), UniProt Q13822). Kind of assay: Inhibition of Autotaxin as Measured by Choline Release. It is filed as biochemical. Conditions: LPC 16:0 30 μM substrate, 37° C. for 1 hour, 4 parameter curve fit. As to the method:
The purpose of this assay is to detect autotaxin inhibition using a choline release assay.
Test compound (10 mM stocks in 100% DMSO) is serially diluted in 100% DMSO resulting in 10 concentrations of 100× inhibitor in half area 96 well plates (Corning 3992). Each of these 10 wells in 100% DMSO is diluted 1:33.33 in assay buffer in round bottom 96 well plates (Fisher 12565502) resulting in 3× concentrations in well containing 3% DMSO. The assay buffer is 50 mM Tris pH8.0, 5 mM KCl, 1 mM CaCl2, 1 mM MgCl2, 0.01% TRITON™ X-100 (Sigma T9284) and 0.01% fatty acid free bovine serum albumin (Sigma A8806). A 20 μl aliquot of each 3× test compound is then added to black flat bottom 96 well plates (Corning 3991) in singlicate. A 20 μl aliquot per well of 3× recombinant human autotaxin, (Echelon, E-4000) (full length human autotaxin with a C-terminal His tag transfected into 293E cells and purified via nickel chelate and size exclusion chromatography) is then added to every well except for the no enzyme control wells. A 20 μl aliquot per well of assay buffer is added to the no enzyme control wells. […] The resorufin on the plates is measured with a SpectraMax Gemini EM fluorometer at excitation-emission wavelengths of 530-590 nm using SoftMax Pro 4.8 software. IC50s are calculated using 4 parameter curve fits. […]

Bounds are passed on as bounds.

Consider `O=C(c1cc(-c2cnn[nH]2)ccn1)N1CCc2nc(NC3Cc4ccccc4C3)ncc2C1` [Example 9, [2-(indan-2-ylamino)-7,8-dihydro-5H-pyrido[4,3-d]pyrimidin-6-yl]-[4-(1H-triazol-5-yl)-2-pyridyl]methanone], for which the concentration for half-maximal inhibition (IC50) at endogenous autotaxin is 7 nM; in assay [1] it was < 1.7 nM.

As to `O=C(c1cnn(Cc2c[nH]nn2)c1)N1CCc2nc(NC3Cc4ccccc4C3)ncc2C1` [Example 1, [2-(indan-2-ylamino)-7,8-dihydro-5H-pyrido[4,3-d]pyrimidin-6-yl]-[1-(1H-triazol-4-ylmethyl)pyrazol-4-yl]methanone], the IC50 at endogenous autotaxin was 5.4 nM; in assay [1], < 1.7 nM.

The term IC50 denotes the concentration that gives 50% inhibition.
